In PubChem BioAssay (NCI):
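Values below derive from 48-hour exposures of cells grown in 96-well plates, with endpoints linearly interpolated between the two concentrations bracketing the appropriate inhibition level. Abbreviation: GI50, concentration required for 50% inhibition of growth. TGI: concentration producing complete growth inhibition.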

Tests used:
Test in all cases: NCI-60 cell line screen, 48 h
786-0 renal = test system: 786-0 renal
A498 renal = test system: A498 renal
A549 NSCLC = test system: A549 NSCLC
ACHN renal = test system: ACHN renal
BT-549 breast = test system: BT-549 breast
CAKI-1 renal = test system: CAKI-1 renal
CCRF-CEM leukemia = test system: CCRF-CEM leukemia
COLO 205 colon = test system: COLO 205 colon
DU-145 prostate = test system: DU-145 prostate
EKVX NSCLC = test system: EKVX NSCLC
HCC-2998 colon = test system: HCC-2998 colon
HCT-116 colon = test system: HCT-116 colon
HCT-15 colon = test system: HCT-15 colon
HL-60(TB) leukemia = test system: HL-60(TB) leukemia
HOP-62 NSCLC = test system: HOP-62 NSCLC
HOP-92 NSCLC = test system: HOP-92 NSCLC
HS 578T breast = test system: HS 578T breast
HT29 colon = test system: HT29 colon
IGROV1 ovarian = test system: IGROV1 ovarian
K-562 leukemia = test system: K-562 leukemia
KM12 colon = test system: KM12 colon
LOX IMVI melanoma = test system: LOX IMVI melanoma
M14 melanoma = test system: M14 melanoma
MALME-3M melanoma = test system: MALME-3M melanoma
MCF7 breast = test system: MCF7 breast
MDA-MB-231 breast = test system: MDA-MB-231 breast
MDA-MB-435 = test system: MDA-MB-435
MOLT-4 leukemia = test system: MOLT-4 leukemia
NCI-H226 lung = test system: NCI-H226 lung

Question: How did the GI50 (786-0 renal) turn out when `Cc1cc(NCCCCNc2ccnc3cc(Cl)ccc23)nc(Nc2ccc(C(=O)N3CCCC3)cc2)n1` was run?
Answer: Its GI50 is 1.57 µM.

Question: What about the TGI (786-0 renal) of the same compound?
Answer: The TGI was 3.02 µM.

Question: And the GI50 (A498 renal)?
Answer: Its GI50 is 1.51 µM.

Question: What about the TGI (A498 renal) of the same compound?
Answer: Its TGI is 7.09 µM.

Question: And the GI50 (A549 NSCLC)?
Answer: Its GI50 is 3.29 µM.

Question: And the TGI (A549 NSCLC)?
Answer: Its TGI is 10.7 µM.

Question: And the GI50 (ACHN renal)?
Answer: Its GI50 is 3.6 µM.

Question: And the TGI (ACHN renal)?
Answer: The TGI was 11.3 µM.

Question: And the GI50 (BT-549 breast)?
Answer: Its GI50 is 1.83 µM.

Question: And the TGI (BT-549 breast)?
Answer: Its TGI is 4.38 µM.

Question: And the GI50 (CAKI-1 renal)?
Answer: Its GI50 is 2.06 µM.

Question: And the TGI (CAKI-1 renal)?
Answer: The TGI was 5.6 µM.

Question: What about the GI50 (CCRF-CEM leukemia) of the same compound?
Answer: Its GI50 is 2.86 µM.

Question: And the TGI (CCRF-CEM leukemia)?
Answer: The TGI was over 100 µM.

Question: What about the GI50 (COLO 205 colon) of the same compound?
Answer: The GI50 was 1.81 µM.

Question: And the TGI (COLO 205 colon)?
Answer: The TGI was 3.56 µM.

Question: And the GI50 (DU-145 prostate)?
Answer: Its GI50 is 3.49 µM.

Question: What about the TGI (DU-145 prostate) of the same compound?
Answer: Its TGI is 13.4 µM.

Question: And the GI50 (EKVX NSCLC)?
Answer: The GI50 was 4.28 µM.

Question: And the TGI (EKVX NSCLC)?
Answer: The TGI was 15.6 µM.

Question: What about the GI50 (HCC-2998 colon) of the same compound?
Answer: The GI50 was 2.99 µM.

Question: What about the TGI (HCC-2998 colon) of the same compound?
Answer: Its TGI is 8.36 µM.

Question: And the GI50 (HCT-116 colon)?
Answer: The GI50 was 1.59 µM.

Question: What about the TGI (HCT-116 colon) of the same compound?
Answer: The TGI was 3.55 µM.

Question: What about the GI50 (HCT-15 colon) of the same compound?
Answer: Its GI50 is 2.28 µM.

Question: And the TGI (HCT-15 colon)?
Answer: Its TGI is 6.75 µM.

Question: And the GI50 (HL-60(TB) leukemia)?
Answer: Its GI50 is 0.202 µM.

Question: What about the TGI (HL-60(TB) leukemia) of the same compound?
Answer: The TGI was 2.27 µM.

Question: And the GI50 (HOP-62 NSCLC)?
Answer: Its GI50 is 2.21 µM.

Question: And the TGI (HOP-62 NSCLC)?
Answer: Its TGI is 4.74 µM.

Question: What about the GI50 (HOP-92 NSCLC) of the same compound?
Answer: The GI50 was 1.58 µM.

Question: What about the TGI (HOP-92 NSCLC) of the same compound?
Answer: Its TGI is 3.7 µM.

Question: What about the GI50 (HS 578T breast) of the same compound?
Answer: Its GI50 is 1.85 µM.

Question: What about the TGI (HS 578T breast) of the same compound?
Answer: The TGI was 4.74 µM.

Question: And the GI50 (HT29 colon)?
Answer: Its GI50 is 2.37 µM.

Question: What about the TGI (HT29 colon) of the same compound?
Answer: Its TGI is 7.8 µM.

Question: And the GI50 (IGROV1 ovarian)?
Answer: The GI50 was 3.58 µM.

Question: And the TGI (IGROV1 ovarian)?
Answer: Its TGI is 13.4 µM.

Question: And the GI50 (K-562 leukemia)?
Answer: The GI50 was 0.306 µM.

Question: And the TGI (K-562 leukemia)?
Answer: Its TGI is 2.33 µM.

Question: And the GI50 (KM12 colon)?
Answer: Its GI50 is 3 µM.

Question: What about the TGI (KM12 colon) of the same compound?
Answer: The TGI was 11.3 µM.

Question: What about the GI50 (LOX IMVI melanoma) of the same compound?
Answer: Its GI50 is 1.48 µM.

Question: What about the TGI (LOX IMVI melanoma) of the same compound?
Answer: Its TGI is 3.05 µM.

Question: And the GI50 (M14 melanoma)?
Answer: The GI50 was 1.96 µM.

Question: And the TGI (M14 melanoma)?
Answer: The TGI was 3.87 µM.

Question: And the GI50 (MALME-3M melanoma)?
Answer: Its GI50 is 1.89 µM.

Question: And the TGI (MALME-3M melanoma)?
Answer: The TGI was 4.17 µM.

Question: What about the GI50 (MCF7 breast) of the same compound?
Answer: Its GI50 is 1.72 µM.

Question: What about the TGI (MCF7 breast) of the same compound?
Answer: Its TGI is 5.02 µM.

Question: What about the GI50 (MDA-MB-231 breast) of the same compound?
Answer: The GI50 was 2.14 µM.

Question: What about the TGI (MDA-MB-231 breast) of the same compound?
Answer: Its TGI is 5.12 µM.

Question: What about the GI50 (MDA-MB-435) of the same compound?
Answer: The GI50 was 1.79 µM.

Question: What about the TGI (MDA-MB-435) of the same compound?
Answer: Its TGI is 3.35 µM.

Question: And the GI50 (MOLT-4 leukemia)?
Answer: The GI50 was 2.81 µM.

Question: What about the TGI (MOLT-4 leukemia) of the same compound?
Answer: Its TGI is 11.6 µM.

Question: And the GI50 (NCI-H226 lung)?
Answer: Its GI50 is 5.13 µM.
